Assays:
human DP2 receptor = biological target: T1, human DP2 receptor (Homo sapiens, UniProt Q9Y5Y4); assay: DP2/CRTH2 radioligand binding assay using [3H]PGD2; details: hDP2 (CRTH2) binding assay
T1 construct: expressed in transfected cells
T1 sequence (Q9Y5Y4 1-395): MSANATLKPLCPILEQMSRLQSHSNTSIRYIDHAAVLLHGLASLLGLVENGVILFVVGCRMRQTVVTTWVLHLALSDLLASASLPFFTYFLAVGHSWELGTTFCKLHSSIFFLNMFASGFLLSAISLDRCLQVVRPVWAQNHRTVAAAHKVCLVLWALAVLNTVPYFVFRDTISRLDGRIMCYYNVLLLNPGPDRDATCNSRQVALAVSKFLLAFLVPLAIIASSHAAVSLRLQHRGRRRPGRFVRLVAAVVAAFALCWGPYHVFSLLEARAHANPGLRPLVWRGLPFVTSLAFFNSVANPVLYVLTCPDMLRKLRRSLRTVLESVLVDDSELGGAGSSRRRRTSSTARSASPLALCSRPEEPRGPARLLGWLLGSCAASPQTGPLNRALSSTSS
Description: The ability of a compound to bind to the human DP2 receptor is assessed via a radioligand binding assay using [^3H]PGD2. HEK293 cells stably expressing recombinant human DP2 are resuspended in 10 mM Hepes, 7.4 containing 1 mM DTT, lysed and centrifuged at 75,000×g to pellet the membranes. The membranes are resuspended in 10 mM Hepes, 7.4 containing 1 mM DTT and 10% glycerol to approximately 5 mg protein/ml. Membranes (2-10 μg protein/well) are incubated in 96-well plates with 1 nM [^3H]PGD2 and test compound in Assay Buffer (50 mM Hepes, 10 mM MnCl2, 1 mM EDTA, plus or minus 0.2% human serum albumin, pH 7.4) for 60 minutes at room temperature. The reactions are terminated by rapid filtration through Whatman GF/C glass fibre filter plates. The filter plates were pre-soaked in 0.33% polythylenimine for 30 minutes at room temperature then washed in Wash Buffer (50 mM Hepes, 0.5 M NaCl pH 7.4) prior to harvesting. After harvesting, the filter plates are washed 3 times with 1 ml cold Wash Buffer then dried. Scintillant is then added to the plates and the radioactivity retained on the filters is determined on a Packard TopCount (Perkin Elmer). Specific binding is determined as total radioactive binding minus non-specific binding in the presence of 10 μM PGD2. IC50s were determined using GraphPad prism analysis of drug titration curves.

human DP1 receptor = biological target: T2, human DP1 receptor (Homo sapiens, UniProt Q13258); assay: DP1 radioligand binding assay using [3H]BWA868C; details: hDP1 binding
T2 construct: tissue Biological Specialty Corporation; host or cells: human platelets, membranes
T2 sequence (Q13258 1-359): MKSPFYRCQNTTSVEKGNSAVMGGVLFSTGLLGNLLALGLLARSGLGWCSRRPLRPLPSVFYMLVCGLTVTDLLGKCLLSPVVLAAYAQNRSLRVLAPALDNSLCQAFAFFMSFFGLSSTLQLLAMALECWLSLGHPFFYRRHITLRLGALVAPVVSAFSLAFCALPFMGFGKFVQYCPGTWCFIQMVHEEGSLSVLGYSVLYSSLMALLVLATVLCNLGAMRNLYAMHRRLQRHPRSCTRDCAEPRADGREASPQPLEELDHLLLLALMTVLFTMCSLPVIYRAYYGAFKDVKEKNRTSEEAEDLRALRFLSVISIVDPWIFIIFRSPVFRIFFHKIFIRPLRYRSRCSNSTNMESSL
Description: The ability of a compound to bind to the human DP1 receptor was evaluated via a radioligand membrane binding assay using the DP1 selective synthetic ligand [^3H]BW A868C. Packed human platelets (Biological Specialty Corporation), were resuspended in 6 volumes of Hepes/HBSS buffer (10 mM Hepes, 1 mM DTT in Hanks Balanced Salt Solution (HBSS)), lysed and centrifuged at 75,000×g to pellet the membranes. Membranes were resuspended in Hepes/HBSS buffer to approximately 12 mg protein/ml. Membranes (20 μg protein/well) are incubated in 96-well plates with 2 nM [^3H]BWA868C and test compound in Assay Buffer (50 mM Hepes, 10 mM MnCl2, 1 mM EDTA, plus or minus 0.2% human serum albumin, pH 7.4) for 60 minutes at room temperature. The reactions are terminated by rapid filtration through Whatman GF/C glass fibre filter plates. The filter plates were pre-soaked in 0.33% polethylenimine for 30 minutes at room temperature then washed in Wash Buffer (50 mM Hepes, 0.5 M NaCl pH 7.4) prior to harvesting. After harvesting, the filter plates are washed 3 times with 1 ml cold Wash Buffer then dried. Scintillant is then added to the plates and the radioactivity retained on the filters is determined on a Packard TopCount (Perkin Elmer). Specific binding is determined as total radioactive binding minus non-specific binding in the presence of 10 μM BW A868C. IC50s were determined using GraphPad prism analysis of drug titration curves.

Row | SMILES | IC50 (human DP2 receptor) [nM] | IC50 (human DP1 receptor) [nM]
1 | COc1ccc(CC(=O)O)cc1Oc1ccc(N2CCOCC2)cc1CN1CCOC1=O [Compound 1-90, {4-Methoxy-3-[4-morpholin-4-yl-2-(2-oxo-oxazolidin-3-ylmethyl)-phenoxy]-phenyl}-acetic acid] | > 1000 | > 1000
2 | COCC(=O)Nc1ccc(Oc2cc(CC(=O)O)ccc2OC)c(CN2CCOC2=O)c1 [Compound 1-107, {4-Methoxy-3-[4-(2-methoxy-acetylamino)-2-(2-oxo-oxazolidin-3-ylmethyl)-phenoxy]-phenyl}-acetic acid] | 300 to 1000 | –
3 | O=C(O)Cc1cccc(Oc2ccc(F)cc2CN2CCOC2=O)c1 [Compound 1-2, {3-[4-Fluoro-2-(2-oxo-oxazolidin-3-ylmethyl)-phenoxy]-phenyl}-acetic acid] | > 1000 | > 1000
4 | C[C@H]1[C@@H](c2ccccc2)OC(=O)N1Cc1cc(-c2ccc(N)cn2)ccc1Oc1cccc(CC(=O)O)c1 [Compound 1-69, {3-[4-(5-Amino-pyridin-2-yl)-2-((4S,5R)-4-methyl-2-oxo-5-phenyl-oxazolidin-3-ylmethyl)-phenoxy]-phenyl}-acetic acid] | < 300 | < 300
5 | COc1ccc(CC(=O)O)cc1Oc1ccc(NS(=O)(=O)c2ccc(Cl)cc2)cc1CN1CCOC1=O [Compound 1-99, {3-[4-(4-Chloro-benzenesulfonylamino)-2-(2-oxo-oxazolidin-3-ylmethyl)-phenoxy]-4-methoxy-phenyl}-acetic acid] | < 300 | > 1000
6 | Cc1nc(-c2ccc(Oc3cccc(CC(=O)O)c3)c(CN3C(=O)O[C@H](c4ccccc4)[C@@H]3C)c2)cn1C [Compound 1-70, {3-[4-(1,2-Dimethyl-1H-imidazol-4-yl)-2-((4S,5R)-4-methyl-2-oxo-5-phenyl-oxazolidin-3-ylmethyl)-phenoxy]-phenyl}-acetic acid] | < 300 | > 1000
7 | C[C@H]1[C@@H](c2ccccc2)OC(=O)N1Cc1cc(-c2nccn2C)ccc1Oc1cccc(CC(=O)O)c1 [Compound 1-73, {3-[4-(1-Methyl-1H-imidazol-2-yl)-2-((4S,5R)-4-methyl-2-oxo-5-phenyl-oxazolidin-3-ylmethyl)-phenoxy]-phenyl}-acetic acid] | 300 to 1000 | 300 to 1000
8 | COc1ccc(CC(=O)O)cc1Oc1ccc(-c2ccc(S(C)(=O)=O)cc2)cc1CN1CCOC1=O [Compound 1-92, {3-[4′-Methanesulfonyl-3-(2-oxo-oxazolidin-3-ylmethyl)-biphenyl-4-yloxy]-4-methoxy-phenyl}-acetic acid] | < 300 | > 1000
9 | C[C@H]1[C@@H](c2ccccc2)OC(=O)N1Cc1cc(-c2ccc(C(N)=O)cn2)ccc1Oc1cccc(CC(=O)O)c1 [Compound 1-68, {3-[4-(5-Carbamoyl-pyridin-2-yl)-2-((4S,5R)-4-methyl-2-oxo-5-phenyl-oxazolidin-3-ylmethyl)-phenoxy]-phenyl}-acetic acid] | 300 to 1000 | < 300
10 | O=C(O)Cc1cccc(Oc2ccccc2CN2CCOC2=O)c1 [Compound 1-1, {3-[2-(2-Oxo-oxazolidin-3-ylmethyl)-phenoxy]-phenyl}-acetic acid] | > 1000 | > 1000
11 | COc1ccc(CC(=O)O)cc1Oc1ccc(Br)cc1CN1CCNC1=O [Compound 3-3, {3-[4-Bromo-2-(2-oxo-imidazolidin-1-ylmethyl)-phenoxy]-4-methoxy-phenyl}-acetic acid] | 300 to 1000 | > 1000
12 | O=C(O)Cc1cccc(Oc2ccc(Br)cc2CN2CCCC2=O)c1 [Compound 3-1, {3-[4-Bromo-2-(2-oxo-pyrrolidin-1-ylmethyl)-phenoxy]-phenyl}-acetic acid] | > 1000 | > 1000
13 | O=C(O)Cc1cc(Oc2ccc(C(F)(F)F)cc2CN2CCOC2=O)ccc1Br [Compound 1-12, {2-Bromo-5-[2-(2-oxo-oxazolidin-3-ylmethyl)-4-trifluoromethyl-phenoxy]-phenyl}-acetic acid] | > 1000 | –
14 | COc1ccc(CC(=O)O)cc1Oc1ccc(Br)cc1CN1CCN(C)C1=O [Compound 3-4, {3-[4-Bromo-2-(3-methyl-2-oxo-imidazolidin-1-ylmethyl)-phenoxy]-4-methoxy-phenyl}-acetic acid] | > 1000 | > 1000
15 | COc1ccc(CC(=O)O)cc1Oc1ccc(NC(=O)C(C)C)cc1CN1CCOC1=O [Compound 1-103, {3-[4-Isobutyrylamino-2-(2-oxo-oxazolidin-3-ylmethyl)-phenoxy]-4-methoxy-phenyl}-acetic acid] | < 300 | –
16 | COc1ccc(CC(=O)O)cc1Oc1ccc(NC(=O)NCc2ccccc2)cc1CN1CCOC1=O [Compound 1-108, {3-[4-(3-Benzyl-ureido)-2-(2-oxo-oxazolidin-3-ylmethyl)-phenoxy]-4-methoxy-phenyl}-acetic acid] | < 300 | –
17 | COc1ccc(CC(=O)O)cc1Oc1ccc(NC(=O)c2cc(C(F)(F)F)ccc2F)cc1CN1CCOC1=O [Compound 1-98, {3-[4-(2-Fluoro-5-trifluoromethyl-benzoylamino)-2-(2-oxo-oxazolidin-3-ylmethyl)-phenoxy]-4-methoxy-phenyl}-acetic acid] | < 300 | > 1000
18 | COc1ccc(CC(=O)O)cc1Oc1ccc(NC(=O)Cc2ccccc2)cc1CN1CCOC1=O [Compound 1-101, {4-Methoxy-3-[2-(2-oxo-oxazolidin-3-ylmethyl)-4-phenylacetylamino-phenoxy]-phenyl}-acetic acid] | < 300 | –
19 | COc1ccc(CC(=O)O)cc1Oc1ccc(NC(=O)c2cccnc2)cc1CN1CCOC1=O [Compound 1-105, (4-Methoxy-3-{2-(2-oxo-oxazolidin-3-ylmethyl)-4-[(pyridine-3-carbonyl)-amino]-phenoxy}-phenyl)-acetic acid] | > 1000 | –
20 | COc1ccc(CC(=O)O)cc1Oc1ccc(NC(=O)c2ccncc2)cc1CN1CCOC1=O [Compound 1-104, (4-Methoxy-3-{2-(2-oxo-oxazolidin-3-ylmethyl)-4-[(pyridine-4-carbonyl)-amino]-phenoxy}-phenyl)-acetic acid] | < 300 | –
21 | COc1ccc(CC(=O)O)cc1Oc1ccc(NC(=O)C(C)(C)C)cc1CN1CCOC1=O [Compound 1-100, {3-[4-(2,2-Dimethyl-propionylamino)-2-(2-oxo-oxazolidin-3-ylmethyl)-phenoxy]-4-methoxy-phenyl}-acetic acid] | < 300 | –
22 | COc1ccc(CC(=O)O)cc1Oc1ccc(NC(=O)C2CCCCC2)cc1CN1CCOC1=O [Compound 1-102, {3-[4-(Cyclohexanecarbonyl-amino)-2-(2-oxo-oxazolidin-3-ylmethyl)-phenoxy]-4-methoxy-phenyl}-acetic acid] | < 300 | –
23 | COc1ccc(CC(=O)O)cc1Oc1ccc(NC(=O)COc2ccccc2)cc1CN1CCOC1=O [Compound 1-106, {4-Methoxy-3-[2-(2-oxo-oxazolidin-3-ylmethyl)-4-(2-phenoxy-acetylamino)-phenoxy]-phenyl}-acetic acid] | < 300 | –

— patent US8242145B2, “Cyclic diaryl ether compounds as antagonists of prostaglandin D2 receptors” (Panmira Pharmaceuticals, LLC, priority 2008, dated 2012)
